Assays:
PBMC = experiment: Inhibition of IL-5 secretion in anti-human CD3 antibody/anti-human CD28 antibody/IL23-stimulated human PBMC after 48 hrs by ELISA; type: functional, cell-based
[1] = molecular target: Calcium/calmodulin-dependent protein kinase type 1G (Homo sapiens) (UniProt Q96NX5); experiment: Inhibition of recombinant human full length GST-tagged CAMK1G expressed in insect cells at 500 nM by Z-LYTE assay relative to control
[2] = molecular target: Macrophage colony-stimulating factor 1 receptor (Homo sapiens) (UniProt P07333); experiment: Inhibition of recombinant human His-tagged CSF1R (538 to 910 residues) expressed in baculovirus expression system at 500 nM by Z-LYTE assay relative to control
Chain of Macrophage colony-stimulating factor 1 receptor (Homo sapiens) (P07333 whole entry, the tested form may be a part): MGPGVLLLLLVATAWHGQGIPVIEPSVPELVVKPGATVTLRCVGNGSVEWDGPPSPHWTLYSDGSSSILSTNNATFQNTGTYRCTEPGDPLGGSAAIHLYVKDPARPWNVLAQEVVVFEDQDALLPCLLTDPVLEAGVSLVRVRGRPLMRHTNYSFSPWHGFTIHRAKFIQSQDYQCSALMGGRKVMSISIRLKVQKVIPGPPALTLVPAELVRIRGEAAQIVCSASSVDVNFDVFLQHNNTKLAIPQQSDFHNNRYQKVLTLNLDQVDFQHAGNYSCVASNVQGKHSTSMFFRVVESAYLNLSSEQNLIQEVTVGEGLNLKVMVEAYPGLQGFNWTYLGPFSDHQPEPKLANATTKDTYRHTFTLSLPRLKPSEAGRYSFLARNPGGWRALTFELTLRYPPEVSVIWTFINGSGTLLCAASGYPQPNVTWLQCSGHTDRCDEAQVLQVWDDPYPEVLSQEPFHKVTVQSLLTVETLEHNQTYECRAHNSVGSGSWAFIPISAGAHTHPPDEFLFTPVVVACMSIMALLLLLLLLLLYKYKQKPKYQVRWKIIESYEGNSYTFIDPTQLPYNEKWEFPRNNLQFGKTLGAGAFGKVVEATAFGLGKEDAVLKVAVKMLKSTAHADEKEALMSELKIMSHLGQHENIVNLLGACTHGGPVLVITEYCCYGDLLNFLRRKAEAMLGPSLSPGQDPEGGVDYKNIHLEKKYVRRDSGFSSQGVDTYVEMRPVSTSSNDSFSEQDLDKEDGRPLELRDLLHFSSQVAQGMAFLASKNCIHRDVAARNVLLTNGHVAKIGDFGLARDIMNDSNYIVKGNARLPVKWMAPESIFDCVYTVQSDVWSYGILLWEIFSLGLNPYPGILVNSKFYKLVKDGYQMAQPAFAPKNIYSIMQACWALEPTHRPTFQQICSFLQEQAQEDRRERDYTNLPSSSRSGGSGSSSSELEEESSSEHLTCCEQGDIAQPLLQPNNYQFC

[3] = molecular target: Receptor-type tyrosine-protein kinase FLT3 (Homo sapiens) (UniProt P36888); experiment: Inhibition of recombinant human His-tagged FLT3 cytoplasmic domain (564 to 958 residues) expressed in baculovirus expression system at 500 nM by Z-LYTE assay relative to control
[4] = molecular target: Serine/threonine-protein kinase mTOR (Homo sapiens) (UniProt P42345); experiment: Inhibition of recombinant human GST-tagged mTOR cytoplasmic domain (1360 to 2549 residues) expressed in baculovirus expression system at 500 nM by Z-LYTE assay relative to control
[5] = molecular target: Glycogen synthase kinase-3 alpha (Homo sapiens) (UniProt P49840); experiment: Inhibition of GSK3alpha (unknown origin) at 500 nM by Z-LYTE assay relative to control
Chain of Glycogen synthase kinase-3 alpha (Homo sapiens) (P49840 2-483 limits assumed): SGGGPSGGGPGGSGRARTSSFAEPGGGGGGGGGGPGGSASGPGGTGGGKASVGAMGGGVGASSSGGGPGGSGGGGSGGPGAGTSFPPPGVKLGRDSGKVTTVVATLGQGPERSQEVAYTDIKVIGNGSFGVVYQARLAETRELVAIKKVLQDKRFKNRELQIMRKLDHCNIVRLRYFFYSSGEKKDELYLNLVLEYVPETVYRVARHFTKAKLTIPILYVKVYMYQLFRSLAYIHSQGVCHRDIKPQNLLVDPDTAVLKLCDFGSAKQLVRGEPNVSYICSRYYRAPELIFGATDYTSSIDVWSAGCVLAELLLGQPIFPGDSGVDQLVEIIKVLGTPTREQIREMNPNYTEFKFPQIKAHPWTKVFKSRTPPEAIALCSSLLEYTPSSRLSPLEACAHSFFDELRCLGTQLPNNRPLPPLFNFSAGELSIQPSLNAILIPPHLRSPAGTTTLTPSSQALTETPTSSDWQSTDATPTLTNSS

[6] = molecular target: Tyrosine-protein kinase JAK1 (Homo sapiens) (UniProt P23458); experiment: Inhibition of recombinant human GST-tagged JAK1 cytoplasmic domain expressed in baculovirus expression system at 500 nM by Z-LYTE assay relative to control
Chain of Tyrosine-protein kinase JAK1 (Homo sapiens) (P23458 whole entry, the tested form may be a part): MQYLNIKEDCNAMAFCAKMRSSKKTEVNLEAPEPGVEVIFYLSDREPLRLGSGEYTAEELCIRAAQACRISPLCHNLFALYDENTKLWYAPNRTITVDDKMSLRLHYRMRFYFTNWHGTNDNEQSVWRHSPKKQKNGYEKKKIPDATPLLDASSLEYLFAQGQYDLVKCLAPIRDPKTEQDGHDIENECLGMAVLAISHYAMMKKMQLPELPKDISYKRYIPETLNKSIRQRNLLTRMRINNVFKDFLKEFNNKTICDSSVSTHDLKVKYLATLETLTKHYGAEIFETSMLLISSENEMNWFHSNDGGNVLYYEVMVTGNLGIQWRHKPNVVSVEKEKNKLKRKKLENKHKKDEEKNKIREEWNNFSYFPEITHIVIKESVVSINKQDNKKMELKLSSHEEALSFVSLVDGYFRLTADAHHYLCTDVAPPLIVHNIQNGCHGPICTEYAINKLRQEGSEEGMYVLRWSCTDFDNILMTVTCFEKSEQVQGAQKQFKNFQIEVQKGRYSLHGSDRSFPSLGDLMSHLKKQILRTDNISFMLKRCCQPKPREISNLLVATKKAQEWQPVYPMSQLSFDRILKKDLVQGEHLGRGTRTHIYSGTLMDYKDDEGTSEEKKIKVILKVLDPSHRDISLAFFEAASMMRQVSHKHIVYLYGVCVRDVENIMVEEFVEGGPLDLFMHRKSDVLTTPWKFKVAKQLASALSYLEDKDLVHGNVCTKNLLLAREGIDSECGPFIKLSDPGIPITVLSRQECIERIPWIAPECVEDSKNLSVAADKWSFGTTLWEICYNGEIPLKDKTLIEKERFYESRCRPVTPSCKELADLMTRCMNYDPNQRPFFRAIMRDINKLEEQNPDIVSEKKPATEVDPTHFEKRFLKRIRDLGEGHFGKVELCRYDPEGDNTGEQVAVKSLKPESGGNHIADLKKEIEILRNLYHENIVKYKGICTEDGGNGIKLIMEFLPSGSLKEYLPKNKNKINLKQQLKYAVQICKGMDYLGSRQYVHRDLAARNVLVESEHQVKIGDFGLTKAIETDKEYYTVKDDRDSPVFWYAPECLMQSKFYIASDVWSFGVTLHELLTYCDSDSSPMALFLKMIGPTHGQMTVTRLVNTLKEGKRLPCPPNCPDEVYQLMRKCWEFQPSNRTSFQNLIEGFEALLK

[7] = molecular target: Tyrosine-protein kinase JAK2 (Homo sapiens) (UniProt O60674); experiment: Inhibition of recombinant human GST-tagged JAK2 cytoplasmic domain (809 to […] residues) expressed in baculovirus expression system at 500 nM by Z-LYTE assay relative to control
[8] = molecular target: Tyrosine-protein kinase Lck (Homo sapiens) (UniProt P06239); experiment: Inhibition of recombinant full-length human His-tagged LCK expressed in baculovirus expression system at 500 nM by Z-LYTE assay relative to control
Chain of Tyrosine-protein kinase Lck (Homo sapiens) (P06239 2-509 limits assumed): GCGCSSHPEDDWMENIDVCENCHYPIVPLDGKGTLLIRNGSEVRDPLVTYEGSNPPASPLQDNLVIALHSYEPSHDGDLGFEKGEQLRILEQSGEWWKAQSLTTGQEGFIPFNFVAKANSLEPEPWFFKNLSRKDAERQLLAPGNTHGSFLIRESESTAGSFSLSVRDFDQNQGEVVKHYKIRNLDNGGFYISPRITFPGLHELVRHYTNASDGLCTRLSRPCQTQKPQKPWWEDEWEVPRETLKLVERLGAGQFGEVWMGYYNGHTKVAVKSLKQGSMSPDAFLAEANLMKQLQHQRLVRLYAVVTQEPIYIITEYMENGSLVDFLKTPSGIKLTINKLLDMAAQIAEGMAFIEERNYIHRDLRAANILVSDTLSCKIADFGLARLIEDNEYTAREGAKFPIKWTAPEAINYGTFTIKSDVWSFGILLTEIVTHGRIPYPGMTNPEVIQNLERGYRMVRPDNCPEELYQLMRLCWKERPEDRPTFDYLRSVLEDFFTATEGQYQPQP

[9] = molecular target: Mitogen-activated protein kinase 1 (Homo sapiens) (UniProt P28482); experiment: Inhibition of recombinant human full length GST-tagged ERK2 expressed in Escherichia coli at 500 nM by Z-LYTE assay relative to control
[10] = molecular target: T1, Mitogen-activated protein kinase 12 (Homo sapiens) (UniProt P53778); experiment: Inhibition of recombinant human full length His-tagged p38-gamma expressed in baculovirus expression system at 500 nM by Z-LYTE assay relative to control
T1 sequence (whole entry): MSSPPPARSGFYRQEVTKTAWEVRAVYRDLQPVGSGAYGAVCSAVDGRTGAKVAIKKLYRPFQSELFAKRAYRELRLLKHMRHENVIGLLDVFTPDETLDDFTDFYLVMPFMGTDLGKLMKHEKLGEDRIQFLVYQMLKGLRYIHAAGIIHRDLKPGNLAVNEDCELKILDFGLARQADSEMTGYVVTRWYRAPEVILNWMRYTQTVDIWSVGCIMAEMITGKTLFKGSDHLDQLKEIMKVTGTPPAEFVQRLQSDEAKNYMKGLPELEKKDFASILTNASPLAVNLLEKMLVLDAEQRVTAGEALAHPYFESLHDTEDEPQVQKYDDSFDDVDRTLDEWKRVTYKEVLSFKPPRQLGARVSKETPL

[11] = molecular target: T2, Mitogen-activated protein kinase 13 (Homo sapiens) (UniProt O15264); experiment: Inhibition of recombinant human full length His-tagged p38-delta expressed in baculovirus expression system at 500 nM by Z-LYTE assay relative to control
T2 sequence (whole entry): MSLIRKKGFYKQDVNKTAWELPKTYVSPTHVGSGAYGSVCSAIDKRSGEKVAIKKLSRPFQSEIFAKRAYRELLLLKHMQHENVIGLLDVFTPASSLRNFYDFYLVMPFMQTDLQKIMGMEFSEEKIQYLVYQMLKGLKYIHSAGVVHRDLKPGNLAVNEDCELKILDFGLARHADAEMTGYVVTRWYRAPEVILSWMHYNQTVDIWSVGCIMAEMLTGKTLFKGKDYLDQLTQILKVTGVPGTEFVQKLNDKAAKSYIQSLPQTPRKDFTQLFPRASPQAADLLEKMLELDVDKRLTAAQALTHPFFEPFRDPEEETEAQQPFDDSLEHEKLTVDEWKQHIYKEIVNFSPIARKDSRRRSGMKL

[12] = molecular target: Platelet-derived growth factor receptor beta (Homo sapiens) (UniProt P09619); experiment: Inhibition of recombinant human His-tagged PDGFRbeta cytoplasmic domain expressed in baculovirus expression system at 500 nM by Z-LYTE assay relative to control
Chain of Platelet-derived growth factor receptor beta (Homo sapiens) (P09619 whole entry, the tested form may be a part, canonical isoform): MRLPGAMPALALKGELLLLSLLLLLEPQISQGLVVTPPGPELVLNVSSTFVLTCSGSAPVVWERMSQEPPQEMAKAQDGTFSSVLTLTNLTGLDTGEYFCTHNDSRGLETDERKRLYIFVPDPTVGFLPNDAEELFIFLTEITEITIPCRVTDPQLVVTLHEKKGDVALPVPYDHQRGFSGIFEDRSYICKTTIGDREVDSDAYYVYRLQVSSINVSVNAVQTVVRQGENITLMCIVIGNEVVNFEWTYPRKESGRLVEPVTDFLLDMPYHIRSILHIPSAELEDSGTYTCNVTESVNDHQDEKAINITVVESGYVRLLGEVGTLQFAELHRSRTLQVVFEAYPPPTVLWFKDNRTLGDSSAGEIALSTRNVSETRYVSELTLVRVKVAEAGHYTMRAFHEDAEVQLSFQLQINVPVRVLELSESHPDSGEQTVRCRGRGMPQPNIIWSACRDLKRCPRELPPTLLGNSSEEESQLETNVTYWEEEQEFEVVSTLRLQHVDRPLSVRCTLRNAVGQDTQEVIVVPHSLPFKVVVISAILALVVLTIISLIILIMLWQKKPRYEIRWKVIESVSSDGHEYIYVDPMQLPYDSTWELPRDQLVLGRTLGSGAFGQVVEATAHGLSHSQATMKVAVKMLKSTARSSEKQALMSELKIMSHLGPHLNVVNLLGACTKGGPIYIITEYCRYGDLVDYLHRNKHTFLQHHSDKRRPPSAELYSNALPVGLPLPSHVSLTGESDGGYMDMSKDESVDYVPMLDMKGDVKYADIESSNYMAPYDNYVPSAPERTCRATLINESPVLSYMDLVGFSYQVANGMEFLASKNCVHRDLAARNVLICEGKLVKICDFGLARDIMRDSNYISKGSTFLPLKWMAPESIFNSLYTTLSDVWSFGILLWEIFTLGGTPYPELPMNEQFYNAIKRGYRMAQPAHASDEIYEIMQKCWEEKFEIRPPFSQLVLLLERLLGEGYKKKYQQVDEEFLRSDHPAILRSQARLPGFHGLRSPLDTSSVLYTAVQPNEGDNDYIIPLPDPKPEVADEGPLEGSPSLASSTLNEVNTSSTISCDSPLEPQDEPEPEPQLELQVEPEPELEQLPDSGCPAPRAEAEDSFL

[13] = molecular target: Phosphatidylinositol 4,5-bisphosphate 3-kinase catalytic subunit gamma isoform (Homo sapiens) (UniProt P48736); experiment: Inhibition of recombinant full length human His-tagged PI3K p110ggamma at 500 nM by Z-LYTE assay relative to control
[14] = molecular target: Serine/threonine-protein kinase pim-1 (Homo sapiens) (UniProt P11309); experiment: Inhibition of recombinant full length human His-tagged PIM1 expressed in baculovirus expression system at 500 nM by Z-LYTE assay relative to control
Chain of Serine/threonine-protein kinase pim-1 (Homo sapiens) (P11309 whole entry, looked up): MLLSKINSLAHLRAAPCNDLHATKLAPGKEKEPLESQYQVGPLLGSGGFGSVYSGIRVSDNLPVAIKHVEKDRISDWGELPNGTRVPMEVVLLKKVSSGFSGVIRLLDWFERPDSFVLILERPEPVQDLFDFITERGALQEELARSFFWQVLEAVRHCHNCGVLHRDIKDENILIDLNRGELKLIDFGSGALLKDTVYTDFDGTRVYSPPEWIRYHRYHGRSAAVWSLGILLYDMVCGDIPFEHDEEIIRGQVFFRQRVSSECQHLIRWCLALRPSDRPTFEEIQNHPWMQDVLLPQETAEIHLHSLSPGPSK

[15] = molecular target: Serine/threonine-protein kinase pim-3 (Homo sapiens) (UniProt Q86V86); experiment: Inhibition of recombinant full length human GST-tagged PIM3 expressed in insect cells at 500 nM by Z-LYTE assay relative to control
[16] = molecular target: Protein kinase C beta type (Homo sapiens) (UniProt P05771); experiment: Inhibition of recombinant full length human GST-tagged PKCbeta-1 expressed in insect cells at 500 nM by Z-LYTE assay relative to control
[17] = molecular target: Nuclear receptor ROR-gamma (Homo sapiens, UniProt P51449); experiment: Antagonist activity at GAL4-DBD fused human RORgamma LBD expressed in HEK293 cells after 18 hrs by luciferase reporter gene assay; type: cell-based
[18] = molecular target: Luciferin 4-monooxygenase (Photinus pyralis, UniProt P08659); experiment: Inhibition of firefly luciferase activity expressed in HEK293 cells after 18 hrs by luminescence assay; type: cell-based
[19] = molecular target: PI3-kinase p110-alpha/p85-alpha (Homo sapiens) (UniProt P27986+P42336); experiment: Inhibition of recombinant full length human His-tagged PI3K p110alpha/p85alpha at 500 nM by Z-LYTE assay relative to control; type: protein-complex assay

| SMILES | IC50 (PBMC) [µM] | inhibition [1] [%] | inhibition [2] [%] | inhibition [3] [%] | inhibition [4] [%] | inhibition [5] [%] | inhibition [6] [%] | inhibition [7] [%] | inhibition [8] [%] | inhibition [9] [%] | inhibition [10] [%] | inhibition [11] [%] | inhibition [12] [%] | inhibition [13] [%] | inhibition [14] [%] | inhibition [15] [%] | inhibition [16] [%] | IC50 [17] [µM] | IC50 [18] [µM] | inhibition [19] [%] |
| --- | --- | --- | --- | --- | --- | --- | --- | --- | --- | --- | --- | --- | --- | --- | --- | --- | --- | --- | --- | --- |
| OCc1ccc(-c2cc3c(N[C@H](CO)c4ccccc4)ncnc3[nH]2)cc1 | 1.1 | 0 | 96 | 43 | 12 | 4 | -1 | 6 | 36 | 9 | 12 | 0 | 7 | 4 | 7 | 3 | -1 |  |  |  |
| CN(C)CCn1cc(-c2cccc(O)c2)c2c(N)ncnc21 |  | 1 | 39 | 38 | 14 | 3 | 3 | 7 | 32 | 6 | 10 | 1 | 5 | 5 | 9 | -7 | 8 | > 10 | > 10 |  |
| OC[C@@H](Nc1ncnc2sc(-c3ccc(O)cc3)cc12)c1ccccc1 | 13 to 13.1 | 1 | 31 | 16 | 7 | 9 | -2 | 1 | 3 | 7 | 0 | -2 | 1 | -2 | 11 | 7 | -9 |  |  | 16 |
| CCC(=O)Nc1ccc(-c2c[nH]c3ncnc(N[C@H](C)c4ccccc4)c23)cc1 |  | 1 | 21 | 42 | 11 | 14 | 3 | 13 | 19 | 6 | 10 | 3 | 5 | 1 | 1 | -1 | 14 | 4.9 | 9.1 |  |

— ChEMBL document CHEMBL4152312, “Identification of fused pyrimidines as interleukin 17 secretion inhibitors” (Eur J Med Chem, 2018)
